“And” between values parts separate entries of the source, which are not always exact repeats. Equal entries are not always repeated. The source made the active and inactive calls. No cut-off for these calls is given here.
How the values were obtained:
CWR22R = assay: Antitumor activity against human 22Rv1 cells expressing AR-V7 xenografted in male nude mouse assessed as suppression of tumor growth at 50 mg/kg, po administered daily for 15 days; assay type: functional, organism-based
[1] = target: Ribosomal protein S6 kinase alpha-4 (Homo sapiens) (UniProt O75676); assay: Inhibition of human N-terminal RPS6KA4 kinase domain assessed as percent of control at 2000 nM by KINOMEscan assay relative to control; design: scale not given: the % may be the effect or the level left
[2] = target: Serine/threonine-protein kinase ICK (Homo sapiens) (UniProt Q9UPZ9); assay: Inhibition of human ICK assessed as percent of control at 2000 nM by KINOMEscan assay relative to control; design: scale not given: the % may be the effect or the level left
[3] = system: Receptor-type tyrosine-protein kinase FLT3 (Homo sapiens), P36888 [N841I]; assay: Inhibition of human FLT3 N841I mutant assessed as percent of control at 2000 nM by KINOMEscan assay relative to control; design: scale not given: the % may be the effect or the level left
[4] = target: Serine/threonine-protein kinase Nek1 (Homo sapiens) (UniProt Q96PY6); assay: Inhibition of human NEK1 assessed as percent of control at 2000 nM by KINOMEscan assay relative to control; design: scale not given: the % may be the effect or the level left
[5] = target: Tyrosine-protein kinase Fyn (Homo sapiens) (UniProt P06241); assay: Inhibition of human FYN assessed as percent of control at 2000 nM by KINOMEscan assay relative to control; design: scale not given: the % may be the effect or the level left
[6] = system: Tyrosine-protein kinase ABL1 (Homo sapiens), P00519 [T315I]; assay: Inhibition of non-phosphorylated human ABL1 T315I mutant assessed as percent of control at 2000 nM by KINOMEscan assay relative to control; design: scale not given: the % may be the effect or the level left
[7] = target: Serine/threonine-protein kinase RIO2 (Homo sapiens) (UniProt Q9BVS4); conditions: INHIBITOR, dose 2000.0 nM
Description: Inhibition of human RIOK2 at 2000 nM by KINOMEscan assay

[8] = target: NUAK family SNF1-like kinase 2 (Homo sapiens) (UniProt Q9H093); assay: Inhibition of human SNARK assessed as percent of control at 2000 nM by KINOMEscan assay relative to control; design: scale not given: the % may be the effect or the level left
[9] = target: Dual specificity protein kinase CLK4 (Homo sapiens) (UniProt Q9HAZ1); assay: Inhibition of human CLK4 assessed as percent of control at 2000 nM by KINOMEscan assay relative to control; design: scale not given: the % may be the effect or the level left
[10] = target: TRAF2 and NCK-interacting protein kinase (Homo sapiens) (UniProt Q9UKE5); assay: Inhibition of human TNIK assessed as percent of control at 2000 nM by KINOMEscan assay relative to control; design: scale not given: the % may be the effect or the level left
[11] = target: Cyclin-dependent kinase 8 (Homo sapiens) (UniProt P49336); assay: Inhibition of human CDK8 assessed as percent of control at 2000 nM by KINOMEscan assay relative to control; design: scale not given: the % may be the effect or the level left; conditions: INHIBITOR
[12] = target: Ribosomal protein S6 kinase alpha-2 (Homo sapiens) (UniProt Q15349); assay: Inhibition of human N-terminal RSK3 kinase domain 1 assessed as percent of control at 2000 nM by KINOMEscan assay relative to control; design: scale not given: the % may be the effect or the level left
[13] = target: Calcium/calmodulin-dependent protein kinase type II subunit beta (Homo sapiens) (UniProt Q13554); assay: Inhibition of human CAMK2B assessed as percent of control at 2000 nM by KINOMEscan assay relative to control; design: scale not given: the % may be the effect or the level left
[14] = target: Tyrosine-protein kinase Fes/Fps (Homo sapiens) (UniProt P07332); assay: Inhibition of human FES assessed as percent of control at 2000 nM by KINOMEscan assay relative to control; design: scale not given: the % may be the effect or the level left
[15] = target: Serine/threonine-protein kinase B-raf (Homo sapiens) (UniProt P15056); assay: Inhibition of human BRAF assessed as percent of control at 2000 nM by KINOMEscan assay relative to control; design: scale not given: the % may be the effect or the level left
[16] = target: Ribosomal protein S6 kinase alpha-5 (Homo sapiens) (UniProt O75582); assay: Inhibition of human N-terminal RPS6KA5 kinase domain 1 assessed as percent of control at 2000 nM by KINOMEscan assay relative to control; design: scale not given: the % may be the effect or the level left
[17] = target: Serine/threonine-protein kinase Chk2 (Homo sapiens) (UniProt O96017); assay: Inhibition of human CHEK2 assessed as percent of control at 2000 nM by KINOMEscan assay relative to control; design: scale not given: the % may be the effect or the level left
[18] = target: TGF-beta receptor type-2 (Homo sapiens) (UniProt P37173); assay: Inhibition of human TGFBR2 assessed as percent of control at 2000 nM by KINOMEscan assay relative to control; design: scale not given: the % may be the effect or the level left
[19] = target: Peripheral plasma membrane protein CASK (Homo sapiens) (UniProt O14936); assay: Inhibition of human CASK assessed as percent of control at 2000 nM by KINOMEscan assay relative to control; design: scale not given: the % may be the effect or the level left
[20] = target: High affinity nerve growth factor receptor (Homo sapiens) (UniProt P04629); assay: Inhibition of human TRKA assessed as percent of control at 2000 nM by KINOMEscan assay relative to control; design: scale not given: the % may be the effect or the level left
[21] = target: Tyrosine-protein kinase receptor UFO (Homo sapiens) (UniProt P30530); assay: Inhibition of human AXL assessed as percent of control at 2000 nM by KINOMEscan assay relative to control; design: scale not given: the % may be the effect or the level left
[22] = system: Hepatocyte growth factor receptor (Homo sapiens), P08581 [M1250T]; assay: Inhibition of human MET M1250T mutant assessed as percent of control at 2000 nM by KINOMEscan assay relative to control; design: scale not given: the % may be the effect or the level left
[23] = system: Tyrosine-protein kinase ABL1 (Homo sapiens), P00519 [Q252H]; assay: Inhibition of non-phosphorylated human ABL1 Q252H mutant assessed as percent of control at 2000 nM by KINOMEscan assay relative to control; design: scale not given: the % may be the effect or the level left
[24] = system: Receptor-type tyrosine-protein kinase FLT3 (Homo sapiens), P36888 [D835V]; assay: Inhibition of human FLT3 D835V mutant assessed as percent of control at 2000 nM by KINOMEscan assay relative to control; design: scale not given: the % may be the effect or the level left; conditions: INHIBITOR
[25] = target: Phosphatidylinositol 3-kinase catalytic subunit type 3 (Homo sapiens) (UniProt Q8NEB9); assay: Inhibition of human VPS34 assessed as percent of control at 2000 nM by KINOMEscan assay relative to control; design: scale not given: the % may be the effect or the level left
[26] = target: Rho-associated protein kinase 2 (Homo sapiens) (UniProt O75116); assay: Inhibition of human ROCK2 assessed as percent of control at 2000 nM by KINOMEscan assay relative to control; design: scale not given: the % may be the effect or the level left
[27] = target: Myosin light chain kinase, smooth muscle (Homo sapiens) (UniProt Q15746); assay: Inhibition of human MYLK assessed as percent of control at 2000 nM by KINOMEscan assay relative to control; design: scale not given: the % may be the effect or the level left
[28] = target: Cyclin-dependent kinase 4/cyclin D1 (Homo sapiens) (UniProt P11802+P24385); assay: Inhibition of human CDK4/cyclin D1 assessed as percent of control at 2000 nM by KINOMEscan assay relative to control; assay type: protein-complex assay; design: scale not given: the % may be the effect or the level left
[29] = target: Dual specificity mitogen-activated protein kinase kinase 2 (Homo sapiens) (UniProt P36507); assay: Inhibition of human MEK2 assessed as percent of control at 2000 nM by KINOMEscan assay relative to control; design: scale not given: the % may be the effect or the level left
[30] = target: Hormonally up-regulated neu tumor-associated kinase (Homo sapiens) (UniProt P57058); assay: Inhibition of human HUNK assessed as percent of control at 2000 nM by KINOMEscan assay relative to control; design: scale not given: the % may be the effect or the level left

Cyclin-dependent kinase 8 (Homo sapiens), sequence (P49336 whole entry, the tested form may be a part): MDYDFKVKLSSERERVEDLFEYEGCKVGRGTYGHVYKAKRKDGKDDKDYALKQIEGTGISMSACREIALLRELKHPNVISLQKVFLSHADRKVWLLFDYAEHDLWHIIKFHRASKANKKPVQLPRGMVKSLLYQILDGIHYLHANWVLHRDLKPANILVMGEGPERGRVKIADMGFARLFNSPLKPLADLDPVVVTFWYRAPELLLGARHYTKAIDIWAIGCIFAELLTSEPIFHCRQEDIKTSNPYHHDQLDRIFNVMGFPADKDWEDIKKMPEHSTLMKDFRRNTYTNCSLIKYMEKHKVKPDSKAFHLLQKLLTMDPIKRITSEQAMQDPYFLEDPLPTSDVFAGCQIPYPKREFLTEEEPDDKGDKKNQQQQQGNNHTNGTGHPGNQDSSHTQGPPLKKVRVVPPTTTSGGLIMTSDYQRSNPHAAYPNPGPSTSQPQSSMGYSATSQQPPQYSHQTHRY
Dual specificity mitogen-activated protein kinase kinase 2 (Homo sapiens), sequence (P36507 whole entry): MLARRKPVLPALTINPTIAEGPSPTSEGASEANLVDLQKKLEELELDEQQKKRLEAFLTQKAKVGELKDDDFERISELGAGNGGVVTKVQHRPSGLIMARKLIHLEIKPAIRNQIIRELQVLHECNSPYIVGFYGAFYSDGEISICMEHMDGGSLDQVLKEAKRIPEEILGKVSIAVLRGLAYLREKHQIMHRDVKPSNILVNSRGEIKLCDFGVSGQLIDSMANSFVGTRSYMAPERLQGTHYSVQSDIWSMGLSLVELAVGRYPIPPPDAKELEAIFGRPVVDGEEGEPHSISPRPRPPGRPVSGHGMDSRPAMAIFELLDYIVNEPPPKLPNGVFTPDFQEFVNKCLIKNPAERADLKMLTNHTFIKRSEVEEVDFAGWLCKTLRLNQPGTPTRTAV
Calcium/calmodulin-dependent protein kinase type II subunit beta (Homo sapiens), sequence (Q13554 whole entry): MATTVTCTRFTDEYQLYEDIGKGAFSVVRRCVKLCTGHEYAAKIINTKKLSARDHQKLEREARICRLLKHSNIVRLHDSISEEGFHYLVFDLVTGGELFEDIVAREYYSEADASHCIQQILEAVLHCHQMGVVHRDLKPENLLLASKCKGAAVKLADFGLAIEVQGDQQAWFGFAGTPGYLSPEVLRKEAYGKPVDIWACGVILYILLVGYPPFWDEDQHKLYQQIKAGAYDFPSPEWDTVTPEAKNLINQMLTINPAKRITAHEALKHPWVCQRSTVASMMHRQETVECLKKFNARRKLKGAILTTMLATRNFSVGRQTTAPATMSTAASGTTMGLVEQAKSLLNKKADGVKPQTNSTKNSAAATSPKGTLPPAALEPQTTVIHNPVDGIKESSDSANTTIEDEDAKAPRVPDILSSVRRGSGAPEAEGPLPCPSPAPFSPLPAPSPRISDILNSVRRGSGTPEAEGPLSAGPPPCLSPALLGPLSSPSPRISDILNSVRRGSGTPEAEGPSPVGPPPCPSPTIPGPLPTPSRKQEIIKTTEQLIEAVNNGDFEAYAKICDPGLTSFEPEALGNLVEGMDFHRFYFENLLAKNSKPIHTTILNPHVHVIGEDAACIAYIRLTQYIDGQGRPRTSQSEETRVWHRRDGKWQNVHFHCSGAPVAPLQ
Ribosomal protein S6 kinase alpha-5 (Homo sapiens), sequence (O75582 whole entry, looked up, the tested form may be a part): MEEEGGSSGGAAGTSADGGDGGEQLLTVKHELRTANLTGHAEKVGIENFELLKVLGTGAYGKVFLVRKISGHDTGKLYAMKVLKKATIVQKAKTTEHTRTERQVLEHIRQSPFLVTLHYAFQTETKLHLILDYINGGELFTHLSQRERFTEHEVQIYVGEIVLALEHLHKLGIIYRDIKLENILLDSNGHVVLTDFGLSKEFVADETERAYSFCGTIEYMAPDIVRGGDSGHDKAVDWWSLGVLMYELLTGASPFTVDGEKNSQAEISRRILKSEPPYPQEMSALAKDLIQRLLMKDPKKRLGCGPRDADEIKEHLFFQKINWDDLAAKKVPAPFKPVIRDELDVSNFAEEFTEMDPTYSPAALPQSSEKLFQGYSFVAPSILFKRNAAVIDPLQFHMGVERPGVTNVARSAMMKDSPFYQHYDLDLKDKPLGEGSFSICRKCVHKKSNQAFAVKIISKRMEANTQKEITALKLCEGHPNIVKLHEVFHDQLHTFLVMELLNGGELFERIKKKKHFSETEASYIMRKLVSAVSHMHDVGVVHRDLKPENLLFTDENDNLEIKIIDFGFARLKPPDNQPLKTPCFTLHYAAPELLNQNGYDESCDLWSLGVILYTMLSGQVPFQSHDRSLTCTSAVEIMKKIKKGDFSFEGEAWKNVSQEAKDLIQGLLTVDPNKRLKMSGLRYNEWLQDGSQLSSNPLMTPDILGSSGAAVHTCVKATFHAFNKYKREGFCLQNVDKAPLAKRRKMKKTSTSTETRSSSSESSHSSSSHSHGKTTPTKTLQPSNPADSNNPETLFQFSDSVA
TRAF2 and NCK-interacting protein kinase (Homo sapiens), sequence (Q9UKE5 whole entry, looked up): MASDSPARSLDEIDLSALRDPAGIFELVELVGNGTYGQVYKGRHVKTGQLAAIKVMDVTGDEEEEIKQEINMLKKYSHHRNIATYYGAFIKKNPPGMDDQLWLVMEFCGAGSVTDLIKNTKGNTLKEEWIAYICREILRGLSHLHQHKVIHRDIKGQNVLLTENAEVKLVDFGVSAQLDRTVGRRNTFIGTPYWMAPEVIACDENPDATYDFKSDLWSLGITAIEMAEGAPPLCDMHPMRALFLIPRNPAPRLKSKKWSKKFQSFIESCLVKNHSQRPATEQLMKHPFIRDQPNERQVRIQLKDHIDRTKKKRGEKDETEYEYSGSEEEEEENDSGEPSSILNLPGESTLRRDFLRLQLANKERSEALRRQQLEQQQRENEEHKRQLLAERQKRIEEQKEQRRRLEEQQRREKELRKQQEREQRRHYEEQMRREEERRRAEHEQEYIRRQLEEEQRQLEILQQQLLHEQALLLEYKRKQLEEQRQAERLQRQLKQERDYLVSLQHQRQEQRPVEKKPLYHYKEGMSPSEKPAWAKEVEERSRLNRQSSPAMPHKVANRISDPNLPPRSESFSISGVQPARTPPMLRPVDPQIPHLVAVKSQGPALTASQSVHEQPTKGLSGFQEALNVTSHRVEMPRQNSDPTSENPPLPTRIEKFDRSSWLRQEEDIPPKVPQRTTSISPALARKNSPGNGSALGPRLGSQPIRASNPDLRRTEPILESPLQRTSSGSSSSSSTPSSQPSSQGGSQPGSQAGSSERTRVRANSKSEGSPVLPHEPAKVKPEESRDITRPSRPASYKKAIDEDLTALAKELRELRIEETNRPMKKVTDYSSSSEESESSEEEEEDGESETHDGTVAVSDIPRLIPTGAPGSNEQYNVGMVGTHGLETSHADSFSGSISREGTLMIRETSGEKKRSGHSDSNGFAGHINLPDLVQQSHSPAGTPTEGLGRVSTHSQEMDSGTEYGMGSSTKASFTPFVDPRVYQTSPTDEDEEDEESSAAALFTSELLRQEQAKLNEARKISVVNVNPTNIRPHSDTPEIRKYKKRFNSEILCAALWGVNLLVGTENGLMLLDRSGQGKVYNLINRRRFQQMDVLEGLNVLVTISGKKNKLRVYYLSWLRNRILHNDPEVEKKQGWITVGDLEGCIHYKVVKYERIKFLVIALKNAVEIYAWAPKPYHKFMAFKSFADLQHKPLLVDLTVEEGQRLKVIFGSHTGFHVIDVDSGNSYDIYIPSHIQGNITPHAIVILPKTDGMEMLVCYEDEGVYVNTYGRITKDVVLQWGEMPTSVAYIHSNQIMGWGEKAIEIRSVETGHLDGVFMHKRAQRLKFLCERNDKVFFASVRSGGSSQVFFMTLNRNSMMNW
Dual specificity protein kinase CLK4 (Homo sapiens), sequence (Q9HAZ1 whole entry, looked up): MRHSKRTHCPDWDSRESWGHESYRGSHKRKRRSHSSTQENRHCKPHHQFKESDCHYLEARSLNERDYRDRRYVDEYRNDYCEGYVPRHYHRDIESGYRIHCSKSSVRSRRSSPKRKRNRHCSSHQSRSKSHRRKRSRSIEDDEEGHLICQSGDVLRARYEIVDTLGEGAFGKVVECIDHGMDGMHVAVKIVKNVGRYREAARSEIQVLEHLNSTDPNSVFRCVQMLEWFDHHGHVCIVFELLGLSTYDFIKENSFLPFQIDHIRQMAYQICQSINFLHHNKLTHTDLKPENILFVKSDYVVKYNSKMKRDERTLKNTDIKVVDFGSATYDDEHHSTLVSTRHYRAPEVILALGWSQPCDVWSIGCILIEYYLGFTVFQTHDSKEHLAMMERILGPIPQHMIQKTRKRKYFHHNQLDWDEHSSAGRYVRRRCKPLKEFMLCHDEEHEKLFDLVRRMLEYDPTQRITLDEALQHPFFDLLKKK
Phosphatidylinositol 3-kinase catalytic subunit type 3 (Homo sapiens), sequence (Q8NEB9 whole entry): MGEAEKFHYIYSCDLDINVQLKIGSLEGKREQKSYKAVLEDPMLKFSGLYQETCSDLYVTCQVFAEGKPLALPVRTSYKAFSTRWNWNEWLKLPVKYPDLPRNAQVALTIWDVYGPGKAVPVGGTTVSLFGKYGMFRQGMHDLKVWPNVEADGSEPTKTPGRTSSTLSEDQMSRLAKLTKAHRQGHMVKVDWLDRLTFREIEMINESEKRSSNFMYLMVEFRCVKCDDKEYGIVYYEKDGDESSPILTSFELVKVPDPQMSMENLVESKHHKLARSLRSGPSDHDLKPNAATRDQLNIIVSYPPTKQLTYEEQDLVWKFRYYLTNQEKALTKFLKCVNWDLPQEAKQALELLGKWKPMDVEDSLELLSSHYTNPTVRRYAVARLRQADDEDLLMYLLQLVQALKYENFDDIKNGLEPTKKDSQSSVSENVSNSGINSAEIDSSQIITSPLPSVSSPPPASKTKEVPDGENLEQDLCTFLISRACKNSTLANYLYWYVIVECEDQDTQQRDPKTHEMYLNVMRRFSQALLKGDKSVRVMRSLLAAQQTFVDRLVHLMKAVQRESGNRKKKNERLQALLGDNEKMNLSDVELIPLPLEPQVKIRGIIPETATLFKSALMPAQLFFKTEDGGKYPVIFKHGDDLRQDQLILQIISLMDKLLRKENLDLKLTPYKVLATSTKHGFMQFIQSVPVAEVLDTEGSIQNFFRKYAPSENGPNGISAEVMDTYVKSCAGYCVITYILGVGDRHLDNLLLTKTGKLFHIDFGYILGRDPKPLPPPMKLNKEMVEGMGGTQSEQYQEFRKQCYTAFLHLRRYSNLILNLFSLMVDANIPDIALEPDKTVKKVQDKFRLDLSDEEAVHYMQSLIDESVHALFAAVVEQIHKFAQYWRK

Structure (SMILES): CN(C)C(=O)c1ccc(N2CCCN(c3ccnc4sc(C(N)=O)c(N)c34)CC2)cc1
- Activity (CWR22R): Active
- Activity [1]: 96% and 100%
- Activity [2]: 84% and 66%
- Activity [3]: 90% and 86%
- Activity [4]: 80% and 96%
- Activity [5]: 99% and 97%
- Activity [6]: 90% and 78%
- inhibition [7]: > 65%
- Activity [8]: 100% and 78%
- Activity [9]: 59% and 66%
- Activity [10]: 100% and 91%
- Activity [11]: 2.6% and 0.25%
- Activity [12]: 99% and 77%
- Activity [13]: 92% and 87%
- Activity [14]: 100%
- Activity [15]: 100% and 96%
- Activity [16]: 75% and 100%
- Activity [17]: 92%
- Activity [18]: 100%
- Activity [19]: 71% and 96%
- Activity [20]: 93% and 78%
- Activity [21]: 99% and 96%
- Activity [22]: 100% and 96%
- Activity [23]: 94% and 75%
- Activity [24]: 33% and 14%
- Activity [25]: 85% and 65%
- Activity [26]: 100% and 80%
- Activity [27]: 74% and 71%
- Activity [28]: 94% and 96%
- Activity [29]: 88% and 82%
- Activity [30]: 99% and 100%

— ChEMBL document CHEMBL4804286, “3-amino-4-(4-(4 (dimethylcarbamoyl) phenyl)-1,4-diazepan-1-yl) thieno [2,3-b] pyridine-2-carboxamide for use in cancer therapy and formulations comprising the same” (2020)
